According to patent publication US20160038498A1, “METHODS FOR THE TREATMENT OF CANCER” (The Translational Genomics Research Institute, priority 2013, published 2016):

Key:
MDM2 protein = assay: Western blot of MDM2 protein after BI-2536; assay type: cell-based; conditions: H295R and SW-13; BI-2536 24 hours
Procedure: 6×10^5 SW-13 and 7.5×10^5 H295R cells were plated in 10 cm^2 dishes in 10 ml of media. […] Cells were lysed with RIPA buffer with protease and phosphatase inhibitors, and the resulting protein lysate quantitated by BCA (Pierce, Thermo Scientific, Pittsburgh, Pa.). Thirty micrograms of protein were loaded onto 4-12% Bis-Tris pre-cast gels (Invitrogen, Carlsbad, Calif.) and allowed to separate at 150V for 1 hour. The gels were then transferred onto PVDF membranes for 7 minutes using the iBLOT western transfer system (Invitrogen, Carlsbad, Calif.) at room temperature. […] The membranes were developed using the SuperSignal West Femto Chemiluminescent Substrate (Pierce, Thermo Scientific, Pittsburgh, Pa.) and were visualized and quantitated with the Bio Spectrum 500 Imaging System (UVP, Cambridge, UK).
The blots were processed as described above for the detection of β-Actin (AbCam, Cambridge, Mass.) in 5% blocking solution which was used as an internal loading control. […] The actin membranes were also detected using the SuperSignal West Femto Chemiluminescent Substrate (Pierce, Thermo Scientific, Pittsburgh, Pa.) and were visualized and quantitated with the Bio Spectrum 500 Imaging System (UVP, Cambridge, UK) and relative amounts of PLK-1, MDM2 and p53 protein are reported relative to β-Actin. […]

H295R cells [1] = assay: Caspase 3/7 Glo assay for apoptosis; assay type: cell-based; conditions: for induction of apoptosis (caspase 3/7 activity), single compound: H295R (wild type p53), 8, 16, 24 and 48 hours
Procedure: (§1) ACC cell lines were plated and 24 hours later, 0.5 μM, 1 μM, 2.5 μM, and 5 μM of doxorubicin was added to the cultures. […] Data was normalized to cells alone, then to vehicle alone and expressed as a percentage of vehicle alone. […] H295R cells were plated at a density of 1750 cells/well in 40 μl of medium and SW-13 was plated at 1250 cells/wells in 40 μl DMEM with 2% FBS. […] Percent caspase 3/7 activity was normalized to cells and to DMSO control. […] […] Doxorubicin (Tocris, Minneapolis, Minn.) was used as a positive control for induction of apoptosis.

SW-13 cells [2] = assay: Caspase 3/7 Glo assay for apoptosis; assay type: cell-based; conditions: for induction of apoptosis (caspase 3/7 activity), single compound: SW-13 (mutant p53), 8, 16, 24 and 48 hours
Procedure: as §1

TP53 (p53) transcript = assay: RT-qPCR of p53 mRNA levels; assay type: cell-based; conditions: either of the two cell lines (H295R, SW-13)
Procedure: (§2) 6×10^5 SW-13 and 7.5×10^5 H295R cells were plated in 10 cm^2 dishes in 10 ml of media. […] Total RNA was extracted 24 hours later using the mirVana miRNA Isolation Kit (Ambion, Inc, Grand Island, N.Y.) as per the manufacturer's protocol.
(§3) Total RNA was reverse transcribed utilizing both random hexamer and oligo-dT primers and the RT^2 First Strand cDNA Synthesis Kit (SABiosciences, Valencia, Calif.). The resulting cDNA was amplified on the iQ5 Real-Time PCR Detection System (Bio-Rad Laboratories, Inc, Hercules, Calif.) using primer sets for TP53 (p53), CDKN1A (p21) and ACTB (β-actin) and RT^2 SYBR Green Master Mix (all from SABiosciences, Valencia, Calif.) and run according to manufacturer's instructions. Melting curve analysis was performed to evaluate primer set specificity. Fold difference relative to […], which was used as the reference gene, was calculated using the Pfaffl method taking into account reaction efficiencies.

H295R cells [3] = assay: In vitro drug dose-response, cell viability by CellTiter Glo; assay type: cell-based
Procedure: (§4) H295R cells were plated at a density of 1750 cells/well in 40 μl of medium and SW-13 cells were plated at 1250 cells/wells in 40 μl DMEM with 2% FBS in white 384-well plates and allowed to attach for 24 hours. […] Cell viability was normalized to cells alone and DMSO controls. […].
(§5) Dose response curves and IC50 values for cell survival in the presence of the drugs were calculated using Prism software (GraphPad) using the log(inhibitor) vs. response—4 parameter function which fits the following equation: Y=Bottom+(Top-Bottom)/[1+10̂(X−Log IC50)] where X is the logarithm of concentration and Y is the percent cell survival. Y starts at the top and goes to bottom with a sigmoid shape as X increases. All experiments were done at least three technical replicates and values are represented as averages with standard error.

SW-13 cells [4] = assay: as above; assay type: cell-based
Procedure: as §4, §5

CDKN1A (p21) transcript = assay: RT-qPCR of p21 mRNA levels; assay type: cell-based
Procedure: as §2, §3

BD140 lines = assay: Caspase 3/7 Glo assay for apoptosis; assay type: cell-based
Procedure: ACC cell lines SW-13 and H295R were obtained from ATCC and authenticated by STR analysis on Aug. 24, 2012. BD140 lines (A-C) represent distinct subclones established from the tumor of ACC140. BD167 was also established. They are positive for DHEAS expression, confirming adrenocortical origin. SW-13 and the […] were grown in DMEM supplemented with 10% FBS, 1% L-glutamine, 1% […] (ITS), and penicillin-streptomycin. BD140-A, BD140-B and BD167 were grown in RPMI supplemented with 10% FBS, 1% L-glutamine, 1% ITS, and penicillin-streptomycin. H295R was grown in DMEM:F12 supplemented with 2.5% NuSerum, 1% L-glutamine, 1% ITS, and penicillin-streptomycin. All cells lines were grown at 37° C. in a 5% CO2 atmosphere.
ACC cell lines were plated and 24 hours later, 0.5 μM, 1 μM, 2.5 μM, and 5 μM of doxorubicin was added to the cultures. The activity of caspases 3 and 7 was assessed using Caspase 3/7 Glo (Promega, Madison, Wis.) at 8, 24, and 48 hours after drug addition according to manufacturer's instructions. Data was normalized to cells alone, then to vehicle alone and expressed as a percentage of vehicle alone.

adrenocortical carcinoma = conditions: cited from earlier work

## CC[C@@H]1C(=O)N(C)c2cnc(Nc3ccc(C(=O)NC4CCN(C)CC4)cc3OC)nc2N1C1CCCC1 [BI-2536]
MDM2 protein
  levels of the MDM2 protein: does not affect
H295R cells [1]
  induction of apoptosis (caspase 3/7 activity), single compound: robust induction of apoptosis
SW-13 cells [2]; SW-13
  time of maximum induction of apoptosis: 48 h
SW-13 cells [2]
  induction of apoptosis (caspase 3/7 activity), single compound: robust induction of apoptosis
TP53 (p53) transcript
  levels of p53 transcript: did not significantly affect
H295R cells [3]
  IC10 (cell viability): 0.00565 µM
SW-13 cells [4]
  IC10 (cell viability): 0.0222 µM
CDKN1A (p21) transcript; H295R, wild type p53
  transcription of CDKN1A (p21): general trend of increased transcription
CDKN1A (p21) transcript; SW-13, mutant p53
  amount of CDKN1A message: reduced

## COc1cccc2c1C(=O)c1c(O)c3c(c(O)c1C2=O)C[C@@](O)(C(=O)CO)C[C@@H]3O[C@H]1C[C@H](N)[C@H](O)[C@H](C)O1 [doxorubicin]
BD140 lines; 0.5 μM and 1 μM
  induction of caspase 3/7 activity: not seen until 48 hours
BD140 lines; 2.5 μM and 5 μM, by 24 hours
  induction of caspase 3/7 activity: moderate induction
H295R cells [1]; H295R, 0.5-5 μM, 8, 24, 48 hours
  caspase 3/7 activation (apoptosis) following doxorubicin exposure: delayed
SW-13 cells [2]; SW-13, 0.5-5 μM
  time to significant induction of caspase 3/7 activation following doxorubicin exposure: ≤ 8 h

## Clc1ccc(C(c2ccccc2Cl)C(Cl)Cl)cc1 (stereo not shown) [mitotane]
Adrenocortical carcinoma; improved from 14 months
  survival of patients whose tumors respond: 50 months
Adrenocortical carcinoma; mitotane as a single agent
  response rate: 23%
Adrenocortical carcinoma; most patients, severe toxic side effects
  tolerability: poorly tolerated

## COc1ccc(C2=N[C@@H](c3ccc(Cl)cc3)[C@@H](c3ccc(Cl)cc3)N2C(=O)N2CCNC(=O)C2)c(OC(C)C)c1 [nutlin-3]
H295R cells [1]
  induction of apoptosis (caspase 3/7 activity), single compound: restored the apoptotic response
SW-13 cells [2]
  induction of apoptosis (caspase 3/7 activity), single compound: small increase in apoptosis
H295R cells [3]
  cell viability (in words): decreased
H295R cells [3]; CellTiter Glo, combination: BI-2536 kept constant at IC25, nutlin-3 serially diluted
  IC50: 12.8 µM
SW-13 cells [4]
  cell viability (in words): decreased
SW-13 cells [4]; CellTiter Glo, 96 hours, combination: BI-2536 kept constant at IC25, nutlin-3 serially diluted
  IC50: 19.8 µM
